According to patent US20240262803A1, “COMPOUNDS, COMPOSITIONS AND METHODS OF TREATING DISORDERS” (Chungdu Anticancer Bioscience Ltd, priority 2021, published 2024):
Where two headings read alike, the source gives them in different places.

Columns and labels:
Type in all cases: cell-based
[1] = test system: liver cancer cell line T2 HCC; assay: MTT assay of cellular proliferation, T2 HCC; details: Mus musculus, read-out: EC50: Concentration that inhibits 50% of proliferation
Description: (§1) Six lung cancer cell lines (NCI-H23, NCI-H460, NCI-H596, NCI-H2170, Calu-6 and A549), two colon cancer cell lines (HCT116 and SW460), one breast cancer cell line MDA-MB-231, one gastric cancer cell line NCI-N87, one prostate cancer cell line DU145, one cervical cancer cell line Hela, and one glioblastoma cell line T98G were obtained from ATCC. The T2 HCC cell line was derived from a mouse liver cancer model initiated by a transgene of MYC (Reference). All cell lines were cultured in DMEM (Gibco, Cleveland, TN, USA) supplemented with 5% fetal bovine serum (Gibco), penicillin (100 U/mL)-streptomycin (100 μg/mL) (Gibco, Cat. No. 15140-122), 2 mM L-glutamine (Gibco, 200 mM solution, Cat. No. 25030081), and 1 mM sodium pyruvate (Gibco, 100 mM solution, Cat. No. 11360070) at 37° C. in a humidified incubator that was maintained at 5% CO2.
(§2) The MTT assay measures cellular metabolic activity as a proxy for cell viability and involves the conversion of the water-soluble yellow dye MTT [3-(4,5-dimethylthiazol-2-yl)-2,5-diphenyltetrazolium bromide] into an insoluble purple formazan by the action of mitochondrial reductase. Formazan is then solubilized and its concentration is determined by measuring the optical density (OD) value at a wavelength of 570 nm. The value is in proportional to the number of live cells with excellent linearity up to ˜10^6 cells per well. The MTT assay was used to determine the EC50 value, the concentration of a compound that leads to 50% inhibition of cellular proliferation. Briefly, cells were split when growing to the mid-Log phase. Cells in 100 μL of culture medium were seeded into each well of 96-well microplates and cultivated for 15˜24 hours to reach a confluence of 20˜30% and were then exposed to drugs at concentrations ranging from 1 nM to 10 μM. At the endpoint, 20 μL of a MTT stock solution in DMSO (5 mg/mL) was added to each well that contains […] of DMEM. The microplates were left in the cell culture incubator for 3˜4 h before subjected to solubilization and determination of formazan at A570 in a microplate reader (BioTek ELX808iu). […] Therefore, these compounds might hold a broad utility in the treatment of a large variety of human malignancies.

[2] = test system: gastric cancer cell line NCI-N87; assay: MTT assay of cellular proliferation, NCI-N87; details: Homo sapiens, read-out: EC50: Concentration that inhibits 50% of proliferation
Description: as §1, §2

RPEMYC^H2B-GFP cells [3] = assay: Mechanism-informed phenotypic screening assay (mitotic arrest, polyploidy; GE IN-Cell Analyzer 2000); details: 20 nM to 20 μM, 24, 48 or 72 hours, read-out: Min. Effective conc. for polyploidy (≥5%)
Description: We have Previously Developed a Mechanism-Informed Phenotypic Screening Assay to identify novel antimitotic agents (Li et al. 2019). Equipped with a prior understanding of the versatile functions of the chromosomal passenger protein (CPP) complex in orchestrating karyokinesis and cytokinesis, the screening assay is to score for phenotypes typically seen when the CPP complex is disabled. Specifically, the parameters for a positive hit are a temporary elevation of mitotic index (MI) at 24 hours of drug treatment and an accumulation of polyploid cells at 48 hours of drug treatment, indicative of mitotic arrest and cytokinetic failure respectively. These parameters exclude compounds that elicit only a prolonged arrest of cells in mitosis, a phenotype typically provoked by spindle toxins. The screening procedure is briefly summarized here. RPEMYC^H2B-GFP cells engineered to express a Histone 2B-EGFP fusion protein were passaged as batches of 96-well plates, 18-24 hours before exposure to the chemical compounds of the present disclosure at concentrations from 20 nM to 20 μM. At 24, 48 or 72 hours after initiation of treatment, cells were analyzed for either an arrest in mitosis or a change in DNA content by GE IN-Cell Analyzer 2000. As set forth in table 2 below, a value of greater than or equal to […] and less than or equal to 1.0 μM is marked e “A”; a value greater than […] and less than or equal to 10.0 μM is marked “B”; a value greater than 10.0 μM and less than or equal to 30.0 μM is marked “C”; and a value greater than 30.0 μM is marked “D.”

[4] = test system: cervical cancer cell line Hela; assay: MTT assay of cellular proliferation, Hela; details: Homo sapiens, read-out: EC50: Concentration that inhibits 50% of proliferation
Description: as §1, §2

SW480 = assay: Minimal effective concentration that elicits polyploidy, SW480; details: Homo sapiens, read-out: MECP: Minimal effective concentration that elicits polyploidy
[5] = test system: breast cancer cell line MDA-MB-231; assay: Minimal effective concentration that elicits polyploidy, MDA-MB-231; details: Homo sapiens, read-out: MECP: Minimal effective concentration that elicits polyploidy
[6] = test system: cervical cancer cell line Hela; assay: Minimal effective concentration that elicits polyploidy, Hela; details: Homo sapiens, read-out: MECP: Minimal effective concentration that elicits polyploidy
[7] = test system: liver cancer cell line T2 HCC; assay: Minimal effective concentration that elicits polyploidy, T2 HCC; details: Mus musculus, read-out: MECP: Minimal effective concentration that elicits polyploidy
RPEMYC^H2B-GFP cells [8] = assay: Mechanism-informed phenotypic screening assay (mitotic arrest, polyploidy; GE IN-Cell Analyzer 2000); details: 20 nM to 20 μM, 24, 48 or 72 hours, read-out: Mitotic Arrest (≥5%)
[9] = test system: colon cancer cell line HCT116; assay: Minimal effective concentration that elicits polyploidy, HCT116; details: Homo sapiens, HCT-116, read-out: MECP: Minimal effective concentration that elicits polyploidy
[10] = test system: lung cancer cell line A549; assay: MTT assay of cellular proliferation, A549; details: Homo sapiens, read-out: EC50: Concentration that inhibits 50% of proliferation
Description: as §1, §2

[11] = test system: gastric cancer cell line NCI-N87; assay: Minimal effective concentration that elicits polyploidy, NCI-N87; details: Homo sapiens, read-out: MECP: Minimal effective concentration that elicits polyploidy
[12] = test system: lung cancer cell line NCI-H23; assay: Minimal effective concentration that elicits polyploidy, NCI-H23; details: Homo sapiens, read-out: MECP: Minimal effective concentration that elicits polyploidy
[13] = test system: breast cancer cell line MDA-MB-231; assay: MTT assay of cellular proliferation, MDA-MB-231; details: Homo sapiens, read-out: EC50: Concentration that inhibits 50% of proliferation
Description: as §1, §2

[14] = test system: colon cancer cell line HCT116; assay: MTT assay of cellular proliferation, HCT116; details: Homo sapiens, HCT-116, read-out: EC50: Concentration that inhibits 50% of proliferation
Description: as §1, §2

[15] = test system: lung cancer cell line NCI-H23; assay: MTT assay of cellular proliferation, NCI-H23; details: Homo sapiens, read-out: EC50: Concentration that inhibits 50% of proliferation
Description: as §1, §2

[16] = test system: lung cancer cell line A549; assay: Minimal effective concentration that elicits polyploidy, A549; details: Homo sapiens, read-out: MECP: Minimal effective concentration that elicits polyploidy
[17] = test system: colon cancer cell line SW460; assay: MTT assay of cellular proliferation, SW460; details: Homo sapiens, SW480; read-out: EC50: Concentration that inhibits 50% of proliferation
Description: as §1, §2

Row | Compound | EC50 [1] [nM] | EC50 [2] [nM] | minimal effective concentration (RPEMYC^H2B-GFP cells [3]) [µM] | EC50 [4] [nM] | minimal effective concentration (SW480) [µM] | minimal effective concentration [5] [µM] | minimal effective concentration [6] [µM] | minimal effective concentration [7] [µM] | minimal effective concentration (RPEMYC^H2B-GFP cells [8]) [µM] | minimal effective concentration [9] [µM] | EC50 [10] [nM] | minimal effective concentration [11] [µM] | minimal effective concentration [12] [µM] | EC50 [13] [nM] | EC50 [14] [nM] | EC50 [15] [nM] | minimal effective concentration [16] [µM] | EC50 [17] [nM]
1 | COc1cc(Oc2ncccc2-c2ccncc2)cc(-n2cncn2)c1 [Compound 12, 2-(3-methoxy-5-(1H-1,2,4-triazol-1-yl)phenoxy)-3,4′-bipyridine] | 1 to 1000 | 1 to 1000 | 1 | 1 to 1000 | 0.001 to 1 | 0.001 to 1 | 0.001 to 1 | 0.001 to 1 | 1 | 0.001 to 1 | 1 to 1000 | 0.001 to 1 | 0.001 to 1 | 1 to 1000 | 1 to 1000 | 1 to 1000 | 0.001 to 1 | 1 to 1000
2 | COc1cc(NC(C)=O)cc(Oc2ncccc2-c2ccncc2)c1 [Compound 13, N-(3-([3,4′-bipyridin]-2-yloxy)-5-methoxyphenyl)acetamide] | 1 to 1000 | 1 to 1000 | 1 | 1 to 1000 | 0.001 to 1 | 0.001 to 1 | 0.001 to 1 | 0.001 to 1 | 1 | 0.001 to 1 | 1 to 1000 | 0.001 to 1 | 0.001 to 1 | 1 to 1000 | 1 to 1000 | 1 to 1000 | 0.001 to 1 | 1 to 1000
3 | COc1cc(OC)cc(Oc2ncccc2-c2ccncc2)c1 [Compound 14, 2-(3,5-dimethoxyphenoxy)-3,4′-bipyridine] | 1 to 1000 | 1 to 1000 | 1 | 1 to 1000 | 0.001 to 1 | 0.001 to 1 | 0.001 to 1 | 0.001 to 1 | 1 | 0.001 to 1 | 1 to 1000 | 0.001 to 1 | 0.001 to 1 | 1 to 1000 | 1 to 1000 | 1 to 1000 | 0.001 to 1 | 1 to 1000
4 | COc1cc(Oc2ncccc2-c2ccnc(N)n2)cc(-n2cccn2)c1 [Compound 26, 4-(2-(3-methoxy-5-(1H-pyrazol-1-yl)phenoxy)pyridin-3-yl)pyrimidin-2-amine] | 1 to 1000 | 1 to 1000 | 1 | 1 to 1000 | 0.001 to 1 | 0.001 to 1 | 0.001 to 1 | 0.001 to 1 | 1 | 0.001 to 1 | 1 to 1000 | 0.001 to 1 | 0.001 to 1 | 1 to 1000 | 1 to 1000 | 1 to 1000 | 0.001 to 1 | 1 to 1000
5 | CNC(=O)c1cc(OC)cc(Oc2ncccc2-c2ccnc(OC)c2)c1 [Compound 27, 3-methoxy-5-((2′-methoxy-[3,4′-bipyridin]-2-yl)oxy)-N-methylbenzamide] | 1 to 1000 | 1 to 1000 | 1 | 1 to 1000 | 0.001 to 1 | 0.001 to 1 | 0.001 to 1 | 0.001 to 1 | 1 | 0.001 to 1 | 1 to 1000 | 0.001 to 1 | 0.001 to 1 | 1 to 1000 | 1 to 1000 | 1 to 1000 | 0.001 to 1 | 1 to 1000
6 | CCOc1cc(Oc2ncccc2-c2ccnc(OC)c2)cc(C(=O)NC)c1 [Compound 28, 3-ethoxy-5-((2′-methoxy-[3,4′-bipyridin]-2-yl)oxy)-N-methylbenzamide] | 1 to 1000 | 1 to 1000 | 1 | 1 to 1000 | 0.001 to 1 | 0.001 to 1 | 0.001 to 1 | 0.001 to 1 | 1 | 0.001 to 1 | 1 to 1000 | 0.001 to 1 | 0.001 to 1 | 1 to 1000 | 1 to 1000 | 1 to 1000 | 0.001 to 1 | 1 to 1000
7 | COc1cc(Oc2ncccc2-c2ccnc(OC)c2)cc(C(F)(F)F)c1 [Compound 30, 2′-methoxy-2-(3-methoxy-5-(trifluoromethyl)phenoxy)-3,4′-bipyridine] | 1 to 1000 | 1 to 1000 | 1 | 1 to 1000 | 0.001 to 1 | 0.001 to 1 | 0.001 to 1 | 0.001 to 1 | 1 | 0.001 to 1 | 1 to 1000 | 0.001 to 1 | 0.001 to 1 | 1 to 1000 | 1 to 1000 | 1 to 1000 | 0.001 to 1 | 1 to 1000
